Results: patent US11365192B2, “Pyridine compound substituted with azole” (TAISHO PHARMACEUTICAL CO., LTD., priority 2017, dated 2022)

Columns and labels:
human CYP4F2 = human CYP4F2 (Homo sapiens (Human), UniProt P78329); experiment: Inhibition test against 20-HETE producing enzyme CYP4F2 (luciferine derivative, luminescence); format: biochemical
Method in brief: (§1)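 IC50 derived from luminescence after 60 min at room temperature with membrane fractions of E. coli expressing each human CYP (100 μg/mL protein). For CYP4A11, 60 μM luciferin derivative in 100 mM Tris-HCl pH 7.5 with NADPH-regenerating system; for CYP4F2, 2.5 μM substrate, 1 mM NADPH, 50 mM KPO4 pH 7.4.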

human CYP4A11 = human CYP4A11 (Homo sapiens (Human), UniProt Q02928); experiment: Inhibition test against 20-HETE producing enzyme CYP4A11 (luciferine derivative, luminescence); format: biochemical
Method in brief: as §1

[1] = human CYP4F2, luciferine derivative, luminescence
[2] = human CYP4A11, luciferine derivative, luminescence
[3] = E. coli membrane fraction expressing human CYP4F2, 2.5 μM luciferine derivative, room temperature 60 minutes
[4] = E. coli membrane fraction expressing human CYP4A11, 60 μM luciferine derivative, room temperature 60 minutes

Chain of human CYP4F2 (P78329 5-520): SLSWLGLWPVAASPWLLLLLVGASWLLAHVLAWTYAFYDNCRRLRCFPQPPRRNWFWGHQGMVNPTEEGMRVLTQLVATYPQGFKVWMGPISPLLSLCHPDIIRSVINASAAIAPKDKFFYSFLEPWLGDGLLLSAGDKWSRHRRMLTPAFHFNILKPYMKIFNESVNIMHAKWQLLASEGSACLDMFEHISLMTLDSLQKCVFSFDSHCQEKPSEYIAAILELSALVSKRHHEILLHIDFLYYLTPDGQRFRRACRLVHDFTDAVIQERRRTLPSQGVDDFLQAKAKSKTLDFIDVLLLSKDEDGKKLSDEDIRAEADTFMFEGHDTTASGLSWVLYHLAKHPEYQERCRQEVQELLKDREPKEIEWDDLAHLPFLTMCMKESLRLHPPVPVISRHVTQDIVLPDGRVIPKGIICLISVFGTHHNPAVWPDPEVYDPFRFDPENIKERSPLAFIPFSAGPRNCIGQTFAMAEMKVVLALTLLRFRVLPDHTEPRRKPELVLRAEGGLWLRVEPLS
Chain of human CYP4A11 (Q02928 5-519): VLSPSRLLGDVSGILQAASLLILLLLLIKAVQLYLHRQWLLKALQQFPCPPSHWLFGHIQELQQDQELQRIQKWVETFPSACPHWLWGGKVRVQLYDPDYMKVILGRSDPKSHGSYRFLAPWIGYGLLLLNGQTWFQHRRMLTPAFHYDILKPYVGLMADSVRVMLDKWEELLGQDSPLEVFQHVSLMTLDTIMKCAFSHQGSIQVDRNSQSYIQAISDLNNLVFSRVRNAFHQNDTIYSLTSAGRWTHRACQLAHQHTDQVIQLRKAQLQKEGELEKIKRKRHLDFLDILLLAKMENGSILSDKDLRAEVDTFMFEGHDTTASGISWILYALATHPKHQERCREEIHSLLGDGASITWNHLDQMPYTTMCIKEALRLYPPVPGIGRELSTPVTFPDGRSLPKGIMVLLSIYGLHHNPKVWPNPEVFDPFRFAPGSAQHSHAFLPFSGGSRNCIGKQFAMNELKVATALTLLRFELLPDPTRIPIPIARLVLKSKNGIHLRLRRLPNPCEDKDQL

SMILES | IC50 (human CYP4F2; [1]) [nM] | IC50 (human CYP4A11; [2]) [nM] | IC50 (human CYP4F2; [3]) [nM] | IC50 (human CYP4A11; [4]) [nM]
CC(C)(COc1ccc(CCOc2ccc(-c3ccn[nH]3)nc2)cn1)C(=O)O [Example 71-33] | 600 | 1600 | – | –
Oc1ccccc1CCOc1ccc(-c2ccn[nH]2)nc1 [Example 13-2] | – | – | 13 | 400
CC(C)(CCCCOc1ccc(-c2ccn[nH]2)nc1)C(=O)O [Example 1-59] | – | – | 17000 | 42
O=C(O)c1ncc(-c2cccc(COc3ccc(-c4ccn[nH]4)nc3)c2)cn1 [Example 22-7] | – | – | 1200 | 38
CC(C)(OCCCCCCCCOc1ccc(-c2ccn[nH]2)nc1)C(=O)O [Example 72-1] | 54 | 450 | – | –
O=C(O)Cc1ccc(COc2ccc(-c3ccn[nH]3)nc2)cc1 [Example 21-1, 2-[4-[[6-(1H-Pyrazol-5-yl)-3-pyridinyl]oxymethyl]phenyl]acetic Acid] | – | – | 15000 | 43
CCS(=O)(=O)NCC(=O)N1CCC[C@@H](COc2ccc(-c3ccn[nH]3)nc2)C1 [Example 41-5] | – | – | 550 | 1100
CC(C)(CCNC(=O)c1cncc(COc2ccc(-c3ccn[nH]3)nc2)c1)C(=O)O [Example 45-17] | 1000 | 510 | – | –
O=C(O)c1ccccc1CCOc1ccc(-c2ccn[nH]2)nc1 [Example 1-7] | – | – | 11000 | 2400
O=C(O)[C@H]1C[C@](O)(c2cc(COc3ccc(-c4ccn[nH]4)nc3)ccc2F)C1 [Example 28-2] | – | – | 1000 | 100
O=C(c1cc(COc2ccc(-c3ccn[nH]3)nc2)ccn1)N1CCC(F)(C(=O)O)C1 (stereo not shown) [Example 45-38] | 300 | 310 | – | –
O=C(O)[C@H]1C[C@@H]1c1ccc(CCOc2ccc(-c3ccn[nH]3)nc2)cc1 [Example 70-10-2] | 340 | 450 | – | –
O=C(O)c1cnn2c1CN(C(=O)c1cccc(COc3ccc(-c4ccn[nH]4)nc3)c1)CC2 [Example 45-44] | 3500 | 110 | – | –
COCCNC(=O)CCc1cccc(COc2ccc(-c3ccn[nH]3)nc2)c1 [Example 43-5] | 40 | 82 | – | –
CC(C)(Oc1ccc(CCOc2ccc(-c3ccn[nH]3)nc2)cn1)C(=O)O [Example 71-32] | 23000 | 6200 | – | –
Oc1cccc(CCCOc2ccc(-c3ccn[nH]3)nc2)c1 [Example 11-2] | – | – | 19 | 520
O=C(O)CCCCc1ccccc1COc1ccc(-c2ccn[nH]2)nc1 [Example 1-12] | – | – | > 50000 | 170
CC(C)(O)c1cc(COc2ccc(-c3ccn[nH]3)nc2)ccc1F [Example 27-5] | – | – | 900 | 79
CC(=O)N1CCC(CCCCCCCCOc2ccc(-c3ccn[nH]3)nc2)(C(=O)O)C1 (stereo not shown) [Example 72-9] | 18 | 230 | – | –
OCC(F)(F)c1cccc(COc2ccc(-c3ccn[nH]3)nc2)c1 [Example 60-2, 2,2-Difluoro-2-[3-[[6-(1H-pyrazol-5-yl)-3-pyridinyl]oxymethyl]phenyl]ethanol] | – | – | 130 | 29

SMILES | IC50 (human CYP4F2; [1]) [nM] | IC50 (human CYP4A11; [2]) [nM] | IC50 (human CYP4F2; [3]) [nM] | IC50 (human CYP4A11; [4]) [nM]
CC(C)(OCCCOCCCCOc1ccc(-c2ccn[nH]2)nc1)C(=O)O [Example 9-3] | – | – | 490 | 1400
CN(C(=O)Cc1cccc(COc2ccc(-c3ccn[nH]3)nc2)c1)S(C)(=O)=O [Example 44-4] | 290 | 410 | – | –
CC(C)(CCNC(=O)c1cccc(COc2ccc(-c3ccn[nH]3)nc2)n1)C(=O)O [Example 45-16] | 3400 | 120 | – | –
O=S(=O)(CCO)c1cccc(COc2ccc(-c3ccn[nH]3)nc2)c1 [Example 3-11] | – | – | 290 | 55
O=C(O)C1(Cc2cccc(CCOc3ccc(-c4ccn[nH]4)nc3)c2F)CC1 [Example 72-8] | 1700 | 15 | – | –
CN(C)C(=O)N1CCC(O)(c2cccc(COc3ccc(-c4ccn[nH]4)nc3)c2)CC1 [Example 51-2] | – | – | 3.5 | 310
CC(C)(OCCOCCCCOc1ccc(-c2ccn[nH]2)nc1)C(=O)O [Example 1-67] | – | – | 10000 | 120
O=C(O)CCc1ccccc1CCOc1ccc(-c2ccn[nH]2)nc1 [Example 2-5, 3-[2-[2-[[6-(1H-Pyrazol-5-yl)-3-pyridinyl]oxy]ethyl]phenyl]propanoic Acid] | – | – | 8600 | 15
O=C(O)CCC12CCC(COc3ccc(-c4ccn[nH]4)nc3)(CC1)CC2 [Example 2-7] | – | – | 4400 | 35
CCCNC(=O)Cc1cccc(COc2ccc(-c3ccn[nH]3)nc2)c1 [Example 42-6] | – | – | 97 | 300
O=C(O)CCc1ccccc1CCCOc1ccc(-c2ccn[nH]2)nc1 [Example 1-17] | – | – | 5100 | 16
O=C(N[C@H]1C[C@H](C(=O)O)C1)c1cccc(COc2ccc(-c3ccn[nH]3)nc2)c1 [Example 45-22] | 2800 | 97 | – | –
O=C(O)C1CCc2cc(COc3ccc(-c4ccn[nH]4)nc3)ccc2O1 (stereo not shown) [Example 1-69] | – | – | 3000 | 75
O=C(O)c1cc(COc2ccc(-c3ccn[nH]3)nc2)ccn1 [Example 1-40, 4-[[6-(1H-Pyrazol-5-yl)-3-pyridinyl]oxymethyl]-2-pyridinecarboxylic Acid] | – | – | 15000 | 580
CC(C)(CCCS(=O)(=O)c1cccc(COc2ccc(-c3ccn[nH]3)nc2)c1)C(=O)O [Example 37-1, 2,2-Dimethyl-5-[3-[[6-(1H-pyrazol-5-yl)-3-pyridinyl]oxymethyl]phenyl] sulfonylpentanoic Acid] | – | – | 32 | 46
CC(C)(COc1ccc(COc2ccc(-c3ccn[nH]3)nc2)cn1)C(=O)O [Example 75-5] | 780 | 720 | – | –
CC(C)(Oc1ccc(CCOc2ccc(-c3ccn[nH]3)nc2)cc1)C(=O)O [Example 71-30] | 11000 | 1900 | – | –
O=C(O)COc1cccc(COc2ccc(-c3ccn[nH]3)nc2)c1 [Example 10-2, 2-[3-[[6-(1H-Pyrazol-5-yl)-3-pyridinyl]oxymethyl]phenoxy]acetic Acid] | – | – | 1100 | 23
NS(=O)(=O)CCCC(=O)N1CCC[C@@H](COc2ccc(-c3ccn[nH]3)nc2)C1 [Example 41-6] | – | – | 320 | 440
CCCNC(=O)c1cccc(COc2ccc(-c3ccn[nH]3)nc2)c1 [Example 42-2] | – | – | 25 | 110

SMILES | IC50 (human CYP4F2; [1]) [nM] | IC50 (human CYP4A11; [2]) [nM] | IC50 (human CYP4F2; [3]) [nM] | IC50 (human CYP4A11; [4]) [nM]
O=C(c1cccc(COc2ccc(-c3ccn[nH]3)nc2)c1)N1CCC(F)(C(=O)O)C1 (stereo not shown) [Example 45-37] | 720 | 120 | – | –
O=C(O)C1CC1c1cc(F)cc(CCOc2ccc(-c3ccn[nH]3)nc2)c1 (single isomer, unassigned) [Example 74-11] | 1200 | 78 | – | –
O=C(O)C1CC1c1cc(F)cc(CCOc2ccc(-c3ccn[nH]3)nc2)c1 (stereo not shown) [Example 74-9] | 19000 | 47 | – | –
O=C(CCc1cccc(COc2cnc(-c3ccn[nH]3)c(F)c2)c1)N1CCC1 [Example 42-17] | 12 | 35 | – | –
O=C(O)Cc1cccc(COc2ccc(-c3cn[nH]c3)nc2)c1 [Example 38-2, 2-[3-[[6-(1H-Pyrazol-4-yl)-3-pyridinyl]oxymethyl]phenyl]acetic Acid] | – | – | 19000 | 11
CC(C)(C(=O)O)n1cc(CCCCOc2ccc(-c3ccn[nH]3)nc2)cn1 [Example 8-13] | – | – | 8300 | 120
O=C(O)CC1CCN(C(=O)c2cccc(COc3ccc(-c4ccn[nH]4)nc3)c2)CC1 [Example 45-30] | 4000 | 290 | – | –
CS(=O)(=O)c1cc(O)cc(COc2ccc(-c3[nH]ncc3Cl)nc2)c1 [Example 66-1, 3-[[6-(4-Chloro-1H-pyrazol-5-yl)-3-pyridinyl]oxymethyl]-5-methylsulfonylphenol] | – | – | 16 | 33
O=C(O)c1ccc(CNC(=O)c2cccc(COc3ccc(-c4ccn[nH]4)nc3)c2)cc1 [Example 45-24] | 830 | 56 | – | –
O=C(CCc1cccc(COc2ccc(-c3ccn[nH]3)nc2)c1)NC[C@@H]1CCCO1 [Example 43-14] | 18 | 52 | – | –
O=C(O)c1cccc(CC(=O)N2CCC[C@@H](COc3ccc(-c4ccn[nH]4)nc3)C2)c1 [Example 46-5] | – | – | 7500 | 280
OCc1cccc(COc2ccc(-c3ccn[nH]3)nc2)c1 [Example 23-5] | – | – | 130 | 480
CC(C)(Oc1cccc(COc2ccc(-c3ccn[nH]3)nc2)n1)C(=O)O [Example 1-66] | – | – | > 50000 | 330
O=C(O)c1cccc(CNC(=O)c2cccc(COc3ccc(-c4ccn[nH]4)nc3)c2)c1 [Example 45-25] | 370 | 40 | – | –
O=C(O)[C@@H]1CCc2ccc(COc3ccc(-c4ccn[nH]4)nc3)cc2C1 [Example 69-1-1] | 240 | 21 | – | –
O=C(CCC1(C(=O)O)CCCC1)N1CCCC(CCOc2ccc(-c3ccn[nH]3)nc2)C1 (stereo not shown) [Example 3-4] | – | – | 260 | 1800
O=C1NC(=O)C(CCCCOc2ccc(-c3ccn[nH]3)nc2)O1 (stereo not shown) [Example 63-1, 5-[4-[[6-(1H-Pyrazol-5-yl)-3-pyridinyl]oxy]butyl]oxazolidine-2,4-dione] | – | – | 12000 | 31
O=C(CCc1cccc(COc2ccc(-c3ccn[nH]3)nc2)c1)N1CCC1 [Example 42-12] | – | – | 42 | 44
O=C(O)C1(Cc2cccc(COc3ccc(-c4ccn[nH]4)nc3)c2F)CC1 [Example 72-7] | 15000 | 14 | – | –
